Measured values: patent US20200306173A1, “LICORICE EXTRACT SYNERGY WITH MENTHOL FOR BREATH FRESHENING IN A CONFECTIONARY PRODUCT” (WM. WRIGLEY JR. COMPANY, priority 2017, published 2020)

System: salivary bacteria
Assay: Hydrogen sulfide production by salivary bacteria in pooled saliva mixed with L-cysteine, headspace GC with sulfur detector
Format: cell-based, human
Settings: Example 2, FIG. 2; menthol alone at 4 mg/ml as compared to 2 mg/ml
Experimental: • 1. About 10-20 ml of saliva was obtained from human subjects and mixed together prior to use. • 2. L-cysteine was dissolved in deionized (D.I.) water to produce 0.5% of cysteine solution. • 3. About 2.5 ml of pooled saliva was mixed with 2.5 ml of cysteine solution in a 20 ml headspace vial. • 4. The amount of hydrogen sulfide generated by salivary bacteria was analyzed by a gas chromatography (GC) equipped with a sulfur detector. Pooled saliva (50% dilution) and L-cysteine (0.25% in D.I. water) were used as the negative controls.
• 1. For evaluation of the headspace concentration of volatile sulfur compounds (VSCs), a gas chromatograph (GC) equipped with a sulfur chemiluminescence detector (SCD) was used. • 2. Each run was completed within 10 minutes. • 3. The level of H2S was analyzed by the GC-SCD by direct injection of 0.25 ml of headspace volume with an automated sampler.
Levels of H2S concentrations [μg/mL] were measured by gas […]. Licorice extract powder (Glycyrrhiza glabra) and menthol were each evaluated individually and then in combination. Saliva with cysteine served as a control reference. Licorice extract powder was sampled individually at 10 mg/ml and 20 mg/ml in a saliva-cysteine mixture. Menthol at 2 mg/ml was sampled individually. Three combinations of licorice and menthol were sampled, varying the amount of licorice extract.

CC1CCC(C(C)C)C(O)C1 (stereo not shown) [menthol]
H2S production (peak gas chromatography area): slight decrease of H2S production in later time points
